# Values of other authors, collected in US20220370466A1, “REGIMENS FOR TREATING HIV INFECTIONS AND AIDS” (ViiV Healthcare Company, priority 2017, published 2022).
# Where two headings read alike, the source gives them in different places.
# Columns and labels:
# [1] = tested on: cytochrome P450 (CYP) isozymes
# [2] = target: T1, CYP3A4 (Homo sapiens, UniProt P08684)
# [3] = tested on: HIV-1; settings: lymphoblastoid cell lines, MAGI-CCR5 cell line, peripheral blood mononuclear cells
# [4] = target: T2, UGT1A9 (Homo sapiens, UniProt O60656); settings: in vitro
# T2 sequence (O60656 26-530): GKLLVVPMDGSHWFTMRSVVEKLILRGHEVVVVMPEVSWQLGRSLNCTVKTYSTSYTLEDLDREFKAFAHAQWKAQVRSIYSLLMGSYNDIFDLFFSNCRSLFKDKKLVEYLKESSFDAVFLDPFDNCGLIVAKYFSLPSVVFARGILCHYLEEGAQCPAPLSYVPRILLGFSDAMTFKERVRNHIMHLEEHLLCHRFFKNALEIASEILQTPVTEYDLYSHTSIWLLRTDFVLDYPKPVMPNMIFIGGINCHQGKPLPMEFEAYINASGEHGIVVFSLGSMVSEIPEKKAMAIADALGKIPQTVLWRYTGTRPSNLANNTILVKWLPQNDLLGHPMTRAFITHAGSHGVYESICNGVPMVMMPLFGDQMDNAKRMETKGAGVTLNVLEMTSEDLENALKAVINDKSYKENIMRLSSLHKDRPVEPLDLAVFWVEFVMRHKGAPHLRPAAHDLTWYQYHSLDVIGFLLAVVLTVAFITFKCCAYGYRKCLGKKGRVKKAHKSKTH
# [5] = target: P-gp (Homo sapiens, UniProt P08183); settings: in vitro
# P-gp, sequence (P08183 whole entry): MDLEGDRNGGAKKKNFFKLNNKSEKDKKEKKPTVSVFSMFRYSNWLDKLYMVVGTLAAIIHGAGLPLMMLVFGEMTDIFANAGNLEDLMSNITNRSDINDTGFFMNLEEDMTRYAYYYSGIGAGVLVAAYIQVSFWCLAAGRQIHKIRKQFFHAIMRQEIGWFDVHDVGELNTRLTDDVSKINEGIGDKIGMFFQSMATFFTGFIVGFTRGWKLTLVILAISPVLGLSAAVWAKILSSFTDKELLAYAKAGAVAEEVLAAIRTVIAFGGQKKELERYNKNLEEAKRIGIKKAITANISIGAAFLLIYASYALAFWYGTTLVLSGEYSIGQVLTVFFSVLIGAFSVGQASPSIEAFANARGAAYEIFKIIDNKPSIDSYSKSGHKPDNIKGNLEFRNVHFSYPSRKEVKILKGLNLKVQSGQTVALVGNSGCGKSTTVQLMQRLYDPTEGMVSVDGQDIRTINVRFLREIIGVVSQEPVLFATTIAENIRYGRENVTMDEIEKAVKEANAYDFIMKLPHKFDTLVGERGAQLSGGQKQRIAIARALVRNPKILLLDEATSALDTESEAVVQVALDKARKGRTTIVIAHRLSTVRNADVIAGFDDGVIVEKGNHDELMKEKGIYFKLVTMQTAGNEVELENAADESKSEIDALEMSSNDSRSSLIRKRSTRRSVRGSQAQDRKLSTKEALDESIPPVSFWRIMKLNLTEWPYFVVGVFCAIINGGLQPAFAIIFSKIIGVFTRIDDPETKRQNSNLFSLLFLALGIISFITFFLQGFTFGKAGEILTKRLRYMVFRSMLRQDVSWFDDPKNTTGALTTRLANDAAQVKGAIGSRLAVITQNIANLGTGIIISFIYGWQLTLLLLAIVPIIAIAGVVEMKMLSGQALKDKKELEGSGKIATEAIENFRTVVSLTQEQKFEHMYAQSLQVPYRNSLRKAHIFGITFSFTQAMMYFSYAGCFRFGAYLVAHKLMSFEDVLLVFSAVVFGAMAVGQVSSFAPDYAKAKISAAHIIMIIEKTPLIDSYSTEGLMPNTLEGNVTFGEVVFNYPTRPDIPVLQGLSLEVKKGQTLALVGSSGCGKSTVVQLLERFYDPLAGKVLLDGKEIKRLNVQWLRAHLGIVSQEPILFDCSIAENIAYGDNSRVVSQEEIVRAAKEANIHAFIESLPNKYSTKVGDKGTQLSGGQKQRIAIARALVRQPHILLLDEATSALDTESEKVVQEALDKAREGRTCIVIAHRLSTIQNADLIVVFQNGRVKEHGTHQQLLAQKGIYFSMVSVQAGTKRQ
# [6] = target: T3, BCRP (Homo sapiens, UniProt Q9UNQ0); settings: in vitro
# T3 sequence (Q9UNQ0 1-655): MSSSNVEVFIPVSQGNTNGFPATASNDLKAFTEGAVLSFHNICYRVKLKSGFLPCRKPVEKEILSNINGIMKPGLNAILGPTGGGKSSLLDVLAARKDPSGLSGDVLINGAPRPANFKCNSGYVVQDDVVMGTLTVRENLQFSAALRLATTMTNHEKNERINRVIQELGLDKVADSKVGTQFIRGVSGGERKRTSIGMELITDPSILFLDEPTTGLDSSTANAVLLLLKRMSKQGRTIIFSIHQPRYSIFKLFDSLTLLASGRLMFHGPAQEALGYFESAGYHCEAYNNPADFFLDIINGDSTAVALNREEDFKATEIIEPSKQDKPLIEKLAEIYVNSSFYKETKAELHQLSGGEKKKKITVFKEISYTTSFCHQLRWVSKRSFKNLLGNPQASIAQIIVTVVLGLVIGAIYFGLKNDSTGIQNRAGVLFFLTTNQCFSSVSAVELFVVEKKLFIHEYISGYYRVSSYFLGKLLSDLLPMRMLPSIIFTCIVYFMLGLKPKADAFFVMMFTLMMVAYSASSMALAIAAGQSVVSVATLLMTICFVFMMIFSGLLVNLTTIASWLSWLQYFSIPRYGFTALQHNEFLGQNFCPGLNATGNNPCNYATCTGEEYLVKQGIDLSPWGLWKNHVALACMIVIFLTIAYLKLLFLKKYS
# [7] = target: T4, UGT1A3 (Homo sapiens, UniProt P35503); settings: in vitro
# T4 sequence (P35503 29-534): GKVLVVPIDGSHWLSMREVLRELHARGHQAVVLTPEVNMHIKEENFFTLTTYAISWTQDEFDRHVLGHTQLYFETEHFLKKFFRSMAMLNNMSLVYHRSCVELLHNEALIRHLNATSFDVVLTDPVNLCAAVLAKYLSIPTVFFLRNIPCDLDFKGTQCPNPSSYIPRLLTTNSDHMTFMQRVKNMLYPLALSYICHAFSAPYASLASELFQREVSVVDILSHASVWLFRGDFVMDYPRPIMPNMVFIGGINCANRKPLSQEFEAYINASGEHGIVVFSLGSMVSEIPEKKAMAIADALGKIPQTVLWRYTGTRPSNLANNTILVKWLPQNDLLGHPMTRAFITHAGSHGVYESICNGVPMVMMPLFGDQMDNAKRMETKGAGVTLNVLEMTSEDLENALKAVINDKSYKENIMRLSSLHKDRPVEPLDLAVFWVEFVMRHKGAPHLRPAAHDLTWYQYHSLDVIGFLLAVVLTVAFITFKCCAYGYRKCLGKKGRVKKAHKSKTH
# [8] = target: T5, UGT1A1 (Homo sapiens, UniProt P22309)
# T5 sequence (P22309 26-533): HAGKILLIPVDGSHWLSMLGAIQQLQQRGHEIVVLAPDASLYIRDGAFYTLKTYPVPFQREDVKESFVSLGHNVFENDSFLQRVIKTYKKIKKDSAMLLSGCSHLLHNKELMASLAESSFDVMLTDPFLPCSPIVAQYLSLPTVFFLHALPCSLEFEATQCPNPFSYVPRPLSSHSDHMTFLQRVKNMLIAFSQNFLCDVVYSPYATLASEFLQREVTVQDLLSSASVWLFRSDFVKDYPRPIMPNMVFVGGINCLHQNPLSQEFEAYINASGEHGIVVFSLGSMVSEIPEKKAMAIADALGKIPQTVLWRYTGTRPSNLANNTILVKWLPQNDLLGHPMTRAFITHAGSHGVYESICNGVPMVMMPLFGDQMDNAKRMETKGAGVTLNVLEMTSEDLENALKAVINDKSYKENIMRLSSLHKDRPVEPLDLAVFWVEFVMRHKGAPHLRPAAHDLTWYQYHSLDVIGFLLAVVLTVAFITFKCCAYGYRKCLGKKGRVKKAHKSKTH
# [9] = target: T1, CYP3A4; remark: listed apart in the source
# [10] = tested on: HIV; settings: monocyte-derived macrophages (MDMs)
# [11] = tested on: HIV; settings: CD4+ T-cells isolated from thirteen (13) persons
# T1 sequence (P08684 whole entry): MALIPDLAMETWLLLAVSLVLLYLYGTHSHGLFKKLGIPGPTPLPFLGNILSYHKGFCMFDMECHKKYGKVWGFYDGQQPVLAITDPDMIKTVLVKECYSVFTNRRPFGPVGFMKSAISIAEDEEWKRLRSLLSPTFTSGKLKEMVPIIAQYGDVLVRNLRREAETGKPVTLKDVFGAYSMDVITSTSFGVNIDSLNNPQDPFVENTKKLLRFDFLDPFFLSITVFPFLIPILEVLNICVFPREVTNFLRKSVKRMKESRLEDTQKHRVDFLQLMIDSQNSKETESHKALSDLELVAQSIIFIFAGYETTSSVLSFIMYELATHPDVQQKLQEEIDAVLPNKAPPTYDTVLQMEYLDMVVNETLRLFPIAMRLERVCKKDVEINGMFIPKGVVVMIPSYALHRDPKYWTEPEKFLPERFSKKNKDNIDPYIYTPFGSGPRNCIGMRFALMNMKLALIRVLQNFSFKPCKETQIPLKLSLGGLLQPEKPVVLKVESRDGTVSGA
structure (smiles),measurement,setting,value
"C[C@@H]1CCO[C@H]2Cn3cc(C(=O)NCc4ccc(F)cc4F)c(=O)c(O)c3C(=O)N12 [Dolutegravir, (4R,12a5)-N-[(2,4-difluorophenyl)methyl]-7-hydroxy-4-methyl-6,8-dioxo-3 ,4,12,12a-tetrahydro-2H-pyrido[5, 6]pyrazino[2,6-b][1,3]oxazine-9-carboxamide]",induction or inhibition of cytochrome P450 (CYP) isozymes,[1],demonstrates induction or inhibition
same,extent to which the drug is a substrate of CYP3A4,[2],about 15%
"Nc1nc(=O)n([C@@H]2CS[C@H](CO)O2)cc1F [Emtricitabine, 5-fluoro-1-(2R,5S)-[2-(hydroxymethyl)-1,3oxathiolan-5-yl]cytosine]",EC50 value against HIV-1,[3],3 to 158 ng/mL
same,EC50,[3]; read-out: EC50 value against HIV-1,1.3 to 640 nM
"O=C(NCc1c(F)cc(F)cc1F)c1cn2c(c(O)c1=O)C(=O)N1[C@H]3CC[C@H](C3)O[C@@H]1C2 [Bictegravir, (2R,5S,13aR)-8-hidroxi-7,9-dioxo-N-[(2,4,6-trifluorofenil)metil]-2,3,4,5,7,9,13,13a-octahidro-2,5-metanopirido[1′,2′: 4,5]pirazino[2,1-b][1,3]oxazepina-10-carboxamida]",substrate of UGT1A9,[4],substrate
same,substrate of P-gp,[5],substrate
same,substrate of BCRP,[6],substrate
same,substrate of UGT1A3,[7],substrate
same,metabolic clearance through UGT1A1,[8],metabolically cleared
same,metabolic clearance through CYP3A4,[9],metabolically cleared
"CC(C)OC(=O)[C@H](C)N[P@](=O)(CO[C@H](C)Cn1cnc2c(N)ncnc21)Oc1ccccc1 [TAF, L-alanine, N-[(S)-[[(1R)-2-(6-amino-9H-purin-9-yl)-1methylethoxy]methyl]phenoxyphosphinyl]-, 1-methylethyl ester, (2E)-2-butenedioate (2:1)]",EC50,[10]; read-out: mean EC50,9.7 nM
same,EC50,[10]; read-out: median EC50,10.3 nM
same,EC50,[11]; read-out: mean EC50,11 nM
same,EC50,[11]; read-out: median EC50,10.2 nM
